Measured values reported in US7910622B2, “Modulation of bacterial quorum sensing with synthetic ligands” (Wisconsin Alumni Research Foundation, priority 2007, dated 2011).
“Also recorded” adds a separate entry of the source.

What was measured:
elastase B production = test: microbe, parasite or virus in culture; type: cell-based, Pseudomonas aeruginosa; conditions: for elastase B production inhibition: Example 2, concentration not stated (20 or 200 tested); for inhibition at 200 µM: Pseudomonas aeruginosa, PAO1, read-out: elastase B production inhibition
Protocol: Elastase B production assay in P. aeruginosa. Elastase B activity in P. aeruginosa was measured according to a previously reported method, with the following modifications. P. aeruginosa PAO1 was grown overnight in LB media at 37° C., after which it was diluted to an OD600=0.1. Portions (2 mL) of this culture was added to test tubes containing synthetic compounds to give final concentrations of 20 μM or 200 μM and incubated for 12-14 h at 37° C. with 200 rpm shaking. The OD600 was measured for each tube, after which the contents of the tubes were filtered through a […] Whatman filter to remove all cellular matter. A 100 μL-aliquot of the supernatant was added to 900 μL of an Elastin Congo Red Solution (5 mg of Elastin Congo red substrate per 1 mL of 100 mM Tris-HCl, 1 mM CaCl2 (pH 7.2)) and incubated for 12 h at 37° C. with 250 rpm shaking. The contents of these tubes were then filtered in order to remove unreacted Elastin Congo red substrate. Elastase B activity was then calculated (normalized) by dividing the absorbance of the cleaved Congo red (OD492) by the cell density (OD600 of the cells before first filtration).
Elastase B production assay in P. aeruginosa. Elastase B activity in P. aeruginosa was measured according to a previously reported method, with the following modifications. P. aeruginosa PAO1 was grown overnight at 37° C. and then diluted 1:10 with fresh LB medium. Portions (2 mL) of this culture were added to test tubes containing synthetic compounds to give final compound concentrations of 20 μM or 200 μM. The tubes were incubated for 12-14 h at 37° C. The OD600 was measured for each tube, after which the contents of the tubes were filtered through a 0.2 μm Whatman filter to remove all cellular matter. A 100 μL aliquot of the supernatant was added to 900 μL of an elastin-Congo red solution (5 mg of elastin-Congo red substrate per 1 mL of buffer (100 mM Tris-HCl, 1 mM CaCl2, pH 7.2)) and incubated for 12 h at 37° C. with 250 rpm shaking. The contents of these tubes were then filtered in order to remove unreacted elastin-Congo red substrate, and the supernatant containing cleaved Congo red was isolated. A 200 μL aliquot of the supernatant was added to a 96-well multititer plate, and the OD492 was measured. Elastase B activity was calculated by dividing the absorbance of the cleaved Congo red solution (OD492) by the cell density (OD600 of the cells before first filtration).

LuxR = molecular target: T1, LuxR (Aliivibrio fischeri, UniProt P35327); test: cell-based; parameters: species or system Vibrio fischeri; conditions: for activation at 200 µM: read-out: V. fischeri-LuxR Activation [%], 200 μM ligand; for activation at 200 µM / V. fischeri-LuxR Activation [%]: normalized to OHHL; for V. fischeri-LuxR Activation [%]: 200 μM ligand
T1 construct: a Δ-luxI derivative of V. fischeri ES114, in which the native lux operon behaves as the bioluminescent reporter; endogenous in cells; host or cells: V. fischeri ES114 (Δ-luxI)
T1 sequence (P35327 whole entry): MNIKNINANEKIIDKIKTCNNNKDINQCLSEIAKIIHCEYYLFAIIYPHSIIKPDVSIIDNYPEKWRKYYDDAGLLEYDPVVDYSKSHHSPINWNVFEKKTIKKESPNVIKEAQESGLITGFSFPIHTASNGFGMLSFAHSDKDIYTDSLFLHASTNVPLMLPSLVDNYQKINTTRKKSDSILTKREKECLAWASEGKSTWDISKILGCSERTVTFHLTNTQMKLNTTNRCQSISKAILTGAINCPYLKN
Procedure, shortened: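 Whole-cell luminescence reporter in V. fischeri ES114 (WT, Δ-luxI or Δ-luxR) or E. coli, overnight cultures diluted 1:10 and grown with compound at RT (E. coli 30° C) to OD600 0.35-0.4 (4-6 h). Luminescence normalized to cell density, triplicates; EC50/IC50 from sigmoidal fit.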

LasR = molecular target: T2, LasR (Pseudomonas aeruginosa, UniProt P25084); test: cell-based; conditions: for activation at 5 µM: read-out: E. coli-LasR Activation [%], 5 μM ligand; for activation at 5 µM / E. coli-LasR Activation [%]: E. coli DH5α (pJN105L pSC11), normalized to OdDHL; for E. coli-LasR Activation [%]: 5 μM ligand
T2 construct: expressed in transfected cells; host or cells: E. coli DH5α (pJN105L pSC11), arabinose-induced
T2 sequence (P25084 whole entry): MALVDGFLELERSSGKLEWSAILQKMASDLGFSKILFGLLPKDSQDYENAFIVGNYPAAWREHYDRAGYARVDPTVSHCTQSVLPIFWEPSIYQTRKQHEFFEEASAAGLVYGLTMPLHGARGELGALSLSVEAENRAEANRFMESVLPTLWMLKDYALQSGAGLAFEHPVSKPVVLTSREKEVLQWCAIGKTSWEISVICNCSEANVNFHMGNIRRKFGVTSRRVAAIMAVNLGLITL
Procedure, shortened: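 E. coli DH5α carrying pJN105L/pSC11 grown to OD600 0.3, LasR expression induced with arabinose (4 mg/mL), then incubated with AHLs at 37 °C to OD600 0.45. LasR activity read by β-galactosidase reporter assay; IC50/EC50 from sigmoidal dose-response fits.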

Compound | elastase B production inhibition (elastase B production; P. aeruginosa PAO1) | activation at 200 µM (LuxR; V. fischeri ES114 (Δ-luxI)) [%] | activation at 5 µM (LasR) [%] | inhibition at 200 µM (elastase B production) [%] | V. fischeri-LuxR Activation [%] (LuxR; V. fischeri ES114 (Δ-luxI)) | E. coli-LasR Activation [%] (LasR) | further results
O=C(Cc1ccc(-c2ccccc2)cc1)NC1CCOC1=O (stereo not drawn) [B21, 4-phenyl PHL] | poorly antagonized elastase B production | 7 | 0 |  |  |  | 
O=C(Cc1ccc(Br)cc1)N[C@H]1CCOC1=O [A17, 4-bromo-phenylacetanoyl HL, reference compound] | ca. 76% | 3 | 0 |  |  |  | 
O=C(Cc1ccc(Br)cc1)N[C@H]1CCOC1=O [compound 8, N-(4-bromo-phenylacetanoyl)-L-homoserine lactone, reference compound] |  |  |  | 77 | 3 | 0 | 
O=C(CCCc1c[nH]c2ccccc12)N[C@H]1CCOC1=O [A18, indole AHL, reference compound] | ~67% |  |  |  | 3 | 3 | 
3-nitro PHL [B17] |  |  |  |  |  | 11 | activation of elastase B production at high concentration (elastase B production; P. aeruginosa PAO1, 10-fold higher concentration (200 vs 20)): activate elastase B production; also recorded: capable of both inhibiting and activating elastase B production; EC50 (LuxR; V. fischeri ES114 (Δ-luxI), read-out: LuxR EC50): 350 nM; luminescence induced higher than native ligand OHHL (LuxR; primary agonism assay, 200 μM, same concentration as OHHL): 29%
O=C(Cc1ccc(-c2ccccc2)cc1)N[C@H]1CCOC1=O [C18, 4-phenyl PHL] |  | 7 | 0 | 4 |  |  | Activation (%) (LuxR; V. fischeri-LuxR, Library C primary agonism screen): 7%; Activation (%) (LasR; E. coli-LasR, Library C primary agonism screen): 0%
